The test system of experiment [1] is MCF7 cells infected with Mycoplasma hyorhnis (HYOR). In words: Cytostatic activity in mycoplasma-infected cells. The format is cell-based, human. The source says:
Tumor cell cultures were infected with M. hyorhinis (ATCC 17981) and after two or more passages (to avoid bias by the initial inoculum) successful infection was confirmed using the MycoAlert™ mycoplasma detection kit (Lonza, Basel, Switzerland). Although this assay is only semi-quantitative, a maximal infection was observed 3 to 4 days after subcultivation of the mycoplasma-exposed cells. Chronically infected tumor cell lines are further referred to as Cell line.Hyor. All tumor cell cultures were maintained in Dulbecco's modified Eagle's medium (DMEM) (Invitrogen) supplemented with 10% fetal bovine serum (Biochrom AG, Berlin, Germany), 10 mm HEPES, and 1 mm sodium pyruvate (Invitrogen). Cells were grown at 37° C. in a humidified incubator with a gas phase containing 5% CO2.
The cytostatic activity of the test compounds was examined in mycoplasma-infected and uninfected cancer cell lines. When assaying the effect of M. hyorhinis infection, monolayer MCF7 and MCF7.Hyor cells were seeded in 48-well microtiter plates (Nunc™, Roskilde, Denmark) at 10,000 cells/well (Corning Inc., Corning, N.Y.) […]. After 24 h, the cells were exposed to different concentrations of test compound and allowed to proliferate for 72 h (to ensure sufficient cell proliferation and mycoplasma growth) after which the cells were trypsinized and counted using a Coulter counter (Analis, Suarlée, Belgium). Suspension cells (L1210, L1210.Hyor, FM3A, and FM3A.Hyor) were seeded in 96-well microtiter plates (Nunc) at 60,000 cells/well in the presence of different concentrations of test compound. The cells were allowed to proliferate for 48 h and then counted using a Coulter counter. The 50% inhibitory concentration (IC50) was defined as the compound concentration required to reduce cell proliferation by 50%.

The subject of experiment [2] is leukaemic stem cell compartment (Lin-/CD34+/CD38-/CD123+) within the KG1a cell line. The experiment in a line: Immunophenotypic identification of the leukaemic stem cell compartment. To be noted: 72 h, LSC phenotype as percentage of all viable cells left, Control: 4%. The experiment is classed as cell-based. As for the experimental part:
A further comparative analysis of the toxicity of compounds in the KG1a cell line over an extended dose range was carried out, and the relative effect assessed of the compounds on the leukaemic stem cell compartment within the KG1a cell line, across the entire dose range. Thus, experimental tests were performed on certain compounds of the present invention to assess their ability to target cancer stem cells in a leukaemic cell line. The acute myeloid leukaemia (AML) cell line, KG1a, was employed to assess the relative effect of compounds on the stem cell compartment. The KG1a cell line was selected because it manifests a minor stem cell-like compartment with a distinct immunophenotype (Lin^−/CD34^+/CD38^−/CD123^+).
Cells of the KG1a cell line were maintained in RPMI medium (Invitrogen, Paisley, UK) supplemented with 100 units/ml penicillin, 100 μg/ml streptomycin and 20% foetal calf serum. Cells were subsequently aliquoted (10^5 cells/100 μl) into 96-well plates and were incubated at 37° C. in a humidified 5% carbon dioxide atmosphere for 72 h in the presence of nucleoside analogues and their respective phosphoramidates at concentrations that were experimentally determined for each series of compounds. In addition, control cultures were carried out to which no drug was added. Cells were subsequently harvested by centrifugation and were analyzed by flow cytometry using the Annexin V assay.
KG1a cells were cultured for 72 h in the presence of a wide range of concentrations of each compound assayed. Cells were then harvested and labelled with a cocktail of anti-lineage antibodies (PE-cy7), anti-CD34 (FITC), anti-CD38 (PE) and anti-CD123 (PERCP cy5). The sub-population expressing a leukaemic stem cell (LSC) phenotype were subsequently identified and were expressed as a percentage of all viable cells left in the culture. […]

In experiment [3] the test system is HEL92.1.7 Erythroleukaemia. In words: In vitro viability assay, CellTiterGlo. The format is cell-based. Particulars: HEL92.1.7, CellTiterGlo, 72 h. A digest of the protocol: (§1)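 Cells were treated for ~72 h with a 9-point, 3.16-fold dilution series, 198 μM to 19.9 nM final, in 0.5% DMSO final, in duplicate. Viability was read by CellTiterGlo luminescence.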
A general note: ATP-based viability assays read luminescence as a measure of living cells.

Experiment [4] has as its system RL Non-Hodgkin's lymphoma. The experiment in a line: In vitro viability assay, CellTiterGlo. The experiment is classed as cell-based. Particulars: CellTiterGlo, 72 h. In a few lines: as §1
For experiment [5], the system named is Z-138 Mantle cell lymphoma. The experiment in a line: In vitro viability assay, CellTiterGlo. The experiment is classed as cell-based. Particulars: Z-138, CellTiterGlo, 72 h. A digest of the protocol:
as §1

Experiment [6] has as its system KG-1 Acute myelogenous leukaemia. The experiment in a line: In vitro viability assay, CellTiterGlo. The format is cell-based. To be noted: KG-1, CellTiterGlo, 72 h. A digest of the protocol:
as §1

For experiment [7], the system named is HL-60 Promyelocytic leukaemia. The experiment in a line: In vitro viability assay, CellTiterGlo. Particulars: HL-60, CellTiterGlo, 72 h. The experiment is classed as cell-based. In a few lines:
as §1

Setting [8] is: Homo sapiens, read-out: EC50 (μM) Ab.

The structures appear in SMILES notation.

For `Nc1nc(Cl)nc2c1ncn2[C@H]1C[C@H](O)[C@@H](CO)O1` [Cladribine, cladribine, reference compound], in experiment [1] (Homo sapiens, MCF7, 72 h, read-out: IC50 MCF7/HYOR), the IC50 is 9.3 µM. Further, the Loss of potency in experiment [1] (MCF7/HYOR versus MCF7) is 25-fold. For the same compound, the Stem cell % in experiment [2] amounted to 6%. Besides, the “Top Inhibition (%)” value in experiment [3] came out at 97.4%; in experiment [4], 94.7%; in experiment [5], 99.7%; in experiment [6], 93.5%; in experiment [7], 85%. Also, the concentration for a half-maximal effect (EC50) was < 0.019 µM in experiment [3] (Homo sapiens, HEL 92.1.7, read-out: EC50 (μM) Ab); < 0.019 µM in experiment [4] (setting [8]); < 0.019 µM in experiment [5] (setting [8]); 0.17 µM in experiment [6] (setting [8]); < 0.019 µM in experiment [7] (setting [8]).

By EC50 is commonly meant the concentration giving half of the maximal effect.

The record behind these values is patent publication US10906929B2, “Phosphoramidate nucleoside derivatives as anticancer agents” (NuCana plc, priority 2016, dated 2021).
